Test results as given in ChEMBL document CHEMBL1146978 (Bioorg Med Chem Lett, 2006).

Tested on: not listed separately
Assay: Inhibition of [3H]leucine uptake at System L in CHO cells
Type: cell-based

`NC[C@H](CC(=O)O)Cc1ccco1` and `NC[C@@H](CC(=O)O)Cc1ccco1` are the same in IC50: 10000 µM for the first, 10000 µM for the second.

Compared with `NCC(CC(=O)O)Cc1cccs1` (stereo not given), `NCC(CC(=O)O)Cc1ccsc1` (stereo not given) is 2.4-fold higher in IC50: 2940 µM for the first, 7030 µM for the second.

Compared with `NCC(CC(=O)O)Cc1ccoc1` (stereo not given), `NCC(CC(=O)O)Cc1ccco1` (stereo not given) is 7-fold higher in IC50: 1420 µM for the first, 10000 µM for the second. The first is the more potent here.

Compound `CC(C)C[C@H](CN)CC(=O)O` [PREGABALIN] has an IC50 of 284 µM.

Tested on: Rattus norvegicus
Assay: Anxiolytic effect in rat at 30 mg/kg, po by Vogel water lick conflict assay assessed by ability to reverse shock-induced suppression of drinking
Type: functional

Compared with `NCC(CC(=O)O)Cc1cccs1` (stereo not given), `NC[C@@H](CC(=O)O)Cc1ccco1` is lower in Activity: 10.3% for the first, 0.28% for the second.

Compared with `NCC(CC(=O)O)Cc1ccoc1` (stereo not given), `NCC(CC(=O)O)Cc1ccsc1` (stereo not given) is higher in Activity: -17% for the first, -3% for the second.

Going from `NCC(CC(=O)O)Cc1ccco1` (stereo not given) to `CC(C)C[C@H](CN)CC(=O)O` [PREGABALIN], the Activity rises from 5.3% to 100%.

Tested on: Mus musculus
Assay: Anticonvulsant activity against DBA/2 mouse at 30 mg/kg, po 2 hrs post dose
Type: functional

First: NCC(CC(=O)O)CC1CCOC1 (stereo not given)
Second: CC(C)C[C@H](CN)CC(=O)O [PREGABALIN]
The Activity of the first is lower: 0% for the first, 100% for the second.

`NCC(CC(=O)O)Cc1ccccc1` (stereo not given) and `NCC(CC(=O)O)Cc1ccoc1` (stereo not given) are the same in Activity: 0% for the first, 0% for the second.

First: NC[C@H](CC(=O)O)Cc1ccco1
Second: NC[C@@H](CC(=O)O)Cc1ccco1
The Activity of the first is higher: 40% for the first, 0% for the second.

First: NCC(CC(=O)O)Cc1cccs1 (stereo not given)
Second: NCC(CC(=O)O)Cc1ccsc1 (stereo not given)
The Activity of the first is lower: 40% for the first, 60% for the second.

`NCC(CC(=O)O)Cc1ccco1` (stereo not given) showed an Activity of 20%.

Target: Voltage-dependent calcium channel alpha2delta subunit (Sus scrofa, UniProt O77773)
Assay: Displacement of [3H]gabapentin from alpha-2delta calcium channel in pig brain membrane
Type: cell membranes

Chain of Voltage-dependent calcium channel alpha2delta subunit (O77773 whole entry): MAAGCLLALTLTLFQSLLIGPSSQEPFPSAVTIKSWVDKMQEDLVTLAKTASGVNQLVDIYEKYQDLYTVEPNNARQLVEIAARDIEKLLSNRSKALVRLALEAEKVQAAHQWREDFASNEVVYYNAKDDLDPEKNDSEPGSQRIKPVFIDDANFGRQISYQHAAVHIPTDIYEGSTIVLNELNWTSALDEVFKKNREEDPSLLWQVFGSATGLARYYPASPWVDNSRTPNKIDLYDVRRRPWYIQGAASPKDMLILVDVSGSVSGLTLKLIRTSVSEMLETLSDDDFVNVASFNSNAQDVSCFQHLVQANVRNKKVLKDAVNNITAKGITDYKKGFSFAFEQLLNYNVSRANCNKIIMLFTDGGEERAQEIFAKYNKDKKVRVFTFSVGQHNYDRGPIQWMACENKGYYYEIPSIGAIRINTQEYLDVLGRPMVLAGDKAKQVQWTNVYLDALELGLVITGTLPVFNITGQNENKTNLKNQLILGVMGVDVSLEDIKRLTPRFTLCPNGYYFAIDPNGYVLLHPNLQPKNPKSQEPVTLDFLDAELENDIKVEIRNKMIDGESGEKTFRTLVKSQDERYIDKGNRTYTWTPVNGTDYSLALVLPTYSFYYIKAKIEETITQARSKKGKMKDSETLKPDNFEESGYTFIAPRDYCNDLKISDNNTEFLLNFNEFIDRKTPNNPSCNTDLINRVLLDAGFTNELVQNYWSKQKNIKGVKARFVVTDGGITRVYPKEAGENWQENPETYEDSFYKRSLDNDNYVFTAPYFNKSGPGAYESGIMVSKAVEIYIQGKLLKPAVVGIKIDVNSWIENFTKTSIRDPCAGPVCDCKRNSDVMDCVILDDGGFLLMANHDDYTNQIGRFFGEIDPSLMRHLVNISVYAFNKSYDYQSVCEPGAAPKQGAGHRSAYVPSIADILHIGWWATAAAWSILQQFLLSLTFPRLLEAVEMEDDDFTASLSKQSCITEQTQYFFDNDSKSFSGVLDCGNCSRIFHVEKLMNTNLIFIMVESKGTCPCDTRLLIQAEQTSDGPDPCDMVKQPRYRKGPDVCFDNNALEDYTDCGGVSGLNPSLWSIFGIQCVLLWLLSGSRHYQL

Compared with `NCC(CC(=O)O)CC1CCOC1` (stereo not given), `NCC(CC(=O)O)Cc1cccs1` (stereo not given) is lower in IC50: over 10000 µM for the first, 2.14 µM for the second. The second is the more potent here.

First: NCC(CC(=O)O)Cc1ccccc1 (stereo not given)
Second: NCC(CC(=O)O)Cc1ccoc1 (stereo not given)
The IC50 of the first is higher: over 10000 µM for the first, 0.518 µM for the second. The second is the more potent here.

First: NC[C@H](CC(=O)O)Cc1ccco1
Second: NC[C@@H](CC(=O)O)Cc1ccco1
The IC50 of the first is 8.2-fold lower: 0.178 µM for the first, 1.46 µM for the second. The first is the more potent here.

Compared with `NCC(CC(=O)O)Cc1ccsc1` (stereo not given), `NCC(CC(=O)O)Cc1ccco1` (stereo not given) is 2-fold lower in IC50: 0.832 µM for the first, 0.421 µM for the second.
